Structures are written as SMILES.

The series has as its system A431 cells. In words: Protein synthesis ([3H]leucine incorporation) assay: inhibition of DAB389 EGF cytotoxicity by chloroquine. To be noted: for % of control Protein Synthesis, + Chloroquine: relative to chloroquine treatment alone.

In the case of `CCN(CC)CCCC(C)Nc1ccnc2cc(Cl)ccc12` (stereo not shown) [Chloroquine, chloroquine], the “% of control Protein Synthesis, + Chloroquine” value reads like this: (A431 cells, chloroquine 10 μM with DAB389 EGF 1 pm, 20 hr) 100%; (A431 cells, chloroquine 10 μM with DAB389 EGF 10 pm, 20 hr) 61%. Under “A431 cells, chloroquine 10 μM, 20 hr”, the “blocking of the cytotoxicity of DAB389 EGF” value was “completely blocked”. Also, the inhibition at 10 µM (Homo sapiens, A-431, 20 h, read-out: reduction of protein synthesis by chloroquine treatment alone) amounted to 27%.

Values taken from patent publication US5906820A, “Epidermal growth factor receptor targeted molecules for treatment of inflammatory arthritis” (priority 1997, dated 1999).
